Measurements from US10800791B2, “Triazole ACC inhibitors and uses thereof” (Gilead Apollo, LLC, priority 2015, dated 2020).
Values after ≈ are worked out from the molar mass of the structure shown. Like-named read-outs stand apart in the source and are kept apart here. Each block holds one compound with its values, some of them ahead of it.

Columns and labels:
[1] = target: human (hACC2) (Homo sapiens, UniProt O00763); assay: In vitro ACC inhibition assay (ADP-Glo), hACC2; assay type: biochemical; details: 5 nM ACC2, 20 μM ATP, 20 μM acetyl-CoA
human (hACC2), sequence (O00763 whole entry): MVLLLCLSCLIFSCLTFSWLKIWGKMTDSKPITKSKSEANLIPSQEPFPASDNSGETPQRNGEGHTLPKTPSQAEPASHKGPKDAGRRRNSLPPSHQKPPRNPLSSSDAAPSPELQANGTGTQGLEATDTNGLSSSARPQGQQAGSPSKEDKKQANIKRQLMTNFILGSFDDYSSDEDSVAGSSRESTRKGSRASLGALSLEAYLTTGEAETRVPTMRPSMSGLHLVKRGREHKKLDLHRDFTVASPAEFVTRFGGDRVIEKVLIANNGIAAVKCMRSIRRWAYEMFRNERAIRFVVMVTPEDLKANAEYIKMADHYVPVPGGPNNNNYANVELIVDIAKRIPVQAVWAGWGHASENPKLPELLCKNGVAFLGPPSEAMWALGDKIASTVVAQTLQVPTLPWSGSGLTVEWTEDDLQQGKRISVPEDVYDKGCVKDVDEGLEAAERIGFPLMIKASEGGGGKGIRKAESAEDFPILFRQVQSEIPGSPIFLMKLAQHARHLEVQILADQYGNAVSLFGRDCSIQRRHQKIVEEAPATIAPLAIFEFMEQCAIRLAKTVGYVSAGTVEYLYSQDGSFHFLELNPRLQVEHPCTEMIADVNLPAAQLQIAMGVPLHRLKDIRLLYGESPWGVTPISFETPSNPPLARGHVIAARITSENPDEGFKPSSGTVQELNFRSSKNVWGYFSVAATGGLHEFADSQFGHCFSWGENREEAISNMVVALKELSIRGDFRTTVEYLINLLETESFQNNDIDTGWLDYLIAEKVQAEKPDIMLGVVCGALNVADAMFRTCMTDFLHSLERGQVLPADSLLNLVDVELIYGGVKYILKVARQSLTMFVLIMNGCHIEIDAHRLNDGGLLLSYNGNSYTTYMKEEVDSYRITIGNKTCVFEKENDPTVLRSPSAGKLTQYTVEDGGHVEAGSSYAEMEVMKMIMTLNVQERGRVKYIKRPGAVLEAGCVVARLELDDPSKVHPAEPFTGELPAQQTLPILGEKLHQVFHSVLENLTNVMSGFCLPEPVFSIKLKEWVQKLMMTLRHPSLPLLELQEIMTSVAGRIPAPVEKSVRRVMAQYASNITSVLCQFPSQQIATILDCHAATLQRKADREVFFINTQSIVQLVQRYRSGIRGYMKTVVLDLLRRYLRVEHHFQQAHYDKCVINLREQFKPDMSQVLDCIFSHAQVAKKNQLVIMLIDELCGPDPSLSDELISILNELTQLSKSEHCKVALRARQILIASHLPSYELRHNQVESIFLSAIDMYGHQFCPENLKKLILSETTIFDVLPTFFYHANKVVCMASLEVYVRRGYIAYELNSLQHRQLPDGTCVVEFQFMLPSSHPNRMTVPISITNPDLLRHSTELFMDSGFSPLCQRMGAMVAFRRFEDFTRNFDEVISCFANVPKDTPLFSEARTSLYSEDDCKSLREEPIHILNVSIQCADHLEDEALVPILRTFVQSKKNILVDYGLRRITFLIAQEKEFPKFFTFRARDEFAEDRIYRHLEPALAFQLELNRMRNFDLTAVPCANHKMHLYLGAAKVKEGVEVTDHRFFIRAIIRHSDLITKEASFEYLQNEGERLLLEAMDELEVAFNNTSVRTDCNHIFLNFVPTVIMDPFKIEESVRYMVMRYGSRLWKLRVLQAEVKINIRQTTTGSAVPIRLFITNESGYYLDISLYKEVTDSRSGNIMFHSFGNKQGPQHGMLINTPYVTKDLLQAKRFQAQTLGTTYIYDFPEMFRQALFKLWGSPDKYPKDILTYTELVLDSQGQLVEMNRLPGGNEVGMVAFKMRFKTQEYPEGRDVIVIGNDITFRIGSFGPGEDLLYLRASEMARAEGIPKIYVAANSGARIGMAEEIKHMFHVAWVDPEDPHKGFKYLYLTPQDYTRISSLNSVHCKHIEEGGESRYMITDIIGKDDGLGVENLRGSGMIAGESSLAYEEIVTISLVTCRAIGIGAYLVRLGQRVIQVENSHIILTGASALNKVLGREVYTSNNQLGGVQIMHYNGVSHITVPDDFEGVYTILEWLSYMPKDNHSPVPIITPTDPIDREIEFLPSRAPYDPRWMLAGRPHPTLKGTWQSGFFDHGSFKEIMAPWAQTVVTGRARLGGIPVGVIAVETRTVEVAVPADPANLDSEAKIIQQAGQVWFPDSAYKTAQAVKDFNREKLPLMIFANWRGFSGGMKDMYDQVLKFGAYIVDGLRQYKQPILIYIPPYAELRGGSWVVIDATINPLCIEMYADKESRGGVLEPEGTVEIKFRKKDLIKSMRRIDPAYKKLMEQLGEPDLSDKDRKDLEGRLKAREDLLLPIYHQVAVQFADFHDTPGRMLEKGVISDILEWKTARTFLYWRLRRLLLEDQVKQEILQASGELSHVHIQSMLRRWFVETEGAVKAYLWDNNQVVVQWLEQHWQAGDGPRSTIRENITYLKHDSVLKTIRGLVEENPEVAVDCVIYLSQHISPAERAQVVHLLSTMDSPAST
Procedure: The detailed procedure is as follows. […] 10 μL ADP glo reagent was added. […] 20 μL kinase detection reagent was added.

[2] = tested on: C. albicans; assay: Antifungal Activity Assay (broth microtiter MIC), C. albicans; assay type: cell-based, Candida albicans; details: Candida albicans, ATCC90028, 48 h
Procedure, shortened: (§1)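 Susceptibility was determined by CLSI M27-A3 broth microdilution in RPMI 1640 buffered with MOPS. Growth inhibition was scored visually after 48 h.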

[3] = tested on: C. krusei; assay: Antifungal Activity Assay (broth microtiter MIC), C. krusei; assay type: cell-based, Candida krusei; details: Pichia kudriavzevii, ATCC6258, 48 h
Procedure, shortened: as §1

[4] = tested on: C. parapsilosis; assay: Antifungal Activity Assay (broth microtiter MIC), C. parapsilosis; assay type: cell-based, Candida parapsilosis; details: Lodderomyces parapsilosis, ATCC22019, 48 h
Procedure, shortened: as §1

[5] = tested on: Collectotrichum graminicola (Cg); assay: Growth inhibition assay of fungal pathogens, Cg; assay type: cell-based; details: 48 h
Procedure, shortened: (§2)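 Spores diluted in 17% V8 liquid media and incubated with compound at final 50, 10, 2 ppm or 2, 0.4, 0.08 ppm (2% DMSO). OD600 plus visual ratings at 24 and 48 hours, blank-subtracted; percent growth inhibition from 48 h readings relative to 2% DMSO control.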

[6] = tested on: Diplodia maydis (Dm); assay: Growth inhibition assay of fungal pathogens, Dm; assay type: cell-based; details: Stenocarpella maydis, 48 h
Procedure, shortened: as §2

[7] = tested on: Fusarium moniliforme (Fm); assay: Growth inhibition assay of fungal pathogens, Fm; assay type: cell-based; details: for IC90: Fusarium verticillioides, 48 h, read-out: Concentration at 90% Inhibition Fm
Procedure, shortened: as §2

[8] = tested on: Fusarium virguliforme (Fv); assay: Growth inhibition assay of fungal pathogens, Fv; assay type: cell-based; details: 48 h
Procedure, shortened: as §2

[9] = tested on: Phytophthora capsici (Pc); assay: Growth inhibition assay of fungal pathogens, Pc; assay type: cell-based; details: 48 h
Procedure, shortened: as §2

[10] = tested on: Rhizoctonia solani (Rs); assay: Growth inhibition assay of fungal pathogens, Rs; assay type: cell-based; details: 48 h
[11] = tested on: Septoria tritici (St); assay: Growth inhibition assay of fungal pathogens, St; assay type: cell-based; details: Zymoseptoria tritici, 48 h
Procedure, shortened: as §2

[12] = Fusarium moniliforme, growth inhibition at 48 hours vs 2% DMSO control

IC50 ([1]; Table 2a): 1 to 5 nM
IC50 ([1]; Table 2b, additional results): 1 to 5 nM
MIC ([2]; Table 3a, ATCC 90028, 3 replicates, MIC recorded at 48 h, read-out: MIC, C. albicans ATCC 90028): 0.25 to 1 µg/mL (≈ 0.419 to 1.68 µM)
MIC ([2]; Table 3b (additional results), ATCC 90028, 3 replicates, MIC recorded at 48 h, read-out: MIC, C. albicans ATCC 90028): 0.25 to 1 µg/mL (≈ 0.419 to 1.68 µM)
MIC ([3]; Table 3a, ATCC 6258, 3 replicates, MIC recorded at 48 h, read-out: MIC, C. krusei ATCC 6258): 0.25 to 1 µg/mL (≈ 0.419 to 1.68 µM)
MIC ([3]; Table 3b (additional results), ATCC 6258, 3 replicates, MIC recorded at 48 h, read-out: MIC, C. krusei ATCC 6258): 0.25 to 1 µg/mL (≈ 0.419 to 1.68 µM)
MIC ([4]; Table 3a, ATCC 22019, 3 replicates, MIC recorded at 48 h, read-out: MIC, C. parapsilosis ATCC 22019): 0.25 to 1 µg/mL (≈ 0.419 to 1.68 µM)
MIC ([4]; Table 3b (additional results), ATCC 22019, 3 replicates, MIC recorded at 48 h, read-out: MIC, C. parapsilosis ATCC 22019): 0.25 to 1 µg/mL (≈ 0.419 to 1.68 µM)
SMILES: CCNC(=O)C(C)(C)n1c(=O)c2c(C)c(-n3nccn3)sc2n(C[C@H](OC2CCOCC2)c2ccccc2OC)c1=O [Compound I-15, (R)—N-ethyl-2-(1-(2-(2-methoxyphenyl)-2-((tetrahydro-2H-pyran-4-yl)oxy)ethyl)-5-methyl-2,4-dioxo-6-(2H-1,2,3-triazol-2-yl)-1,4-dihydro-thieno[2,3-d]pyrimidin-3(2H)-yl)-2-methylpropanamide]
IC90 ([5]; Collectotrichum graminicola, growth inhibition at 48 hours vs 2% DMSO control, read-out: Concentration at 90% Inhibition Cg): 2 µg/mL (≈ 3.35 µM)
IC90 ([5]; Collectotrichum graminicola, growth inhibition vs 2% DMSO control at 48 hours, read-out: Concentration at 90% Inhibition Cg): 10 µg/mL (≈ 16.8 µM)
IC90 ([6]; Diplodia maydis, growth inhibition at 48 hours vs 2% DMSO control, read-out: Concentration at 90% Inhibition Dm): 10 µg/mL (≈ 16.8 µM)
IC90 ([6]; Diplodia maydis, growth inhibition vs 2% DMSO control at 48 hours, read-out: Concentration at 90% Inhibition Dm): > 50 µg/mL
IC90 [7, 12]: 0.08 µg/mL (≈ 0.134 µM)
IC90 ([7]; Fusarium moniliforme, growth inhibition vs 2% DMSO control at 48 hours): 0.08 µg/mL (≈ 0.134 µM)
IC90 ([8]; growth inhibition at 48 hours vs 2% DMSO control, read-out: Concentration at 90% Inhibition Fv): 10 µg/mL (≈ 16.8 µM)
IC90 ([8]; growth inhibition vs 2% DMSO control at 48 hours, read-out: Concentration at 90% Inhibition Fv): > 50 µg/mL
IC90 ([9]; growth inhibition at 48 hours vs 2% DMSO control, read-out: Concentration at 90% Inhibition Pc): > 50 µg/mL
IC90 ([9]; growth inhibition vs 2% DMSO control at 48 hours, read-out: Concentration at 90% Inhibition Pc): > 50 µg/mL
IC90 ([10]; mycelial plugs, growth inhibition at 48 hours vs 2% DMSO control, read-out: Concentration at 90% Inhibition Rs): 10 µg/mL (≈ 16.8 µM)
IC90 ([10]; mycelial plugs, growth inhibition vs 2% DMSO control at 48 hours, read-out: Concentration at 90% Inhibition Rs): > 50 µg/mL
IC90 ([11]; Septoria tritici, growth inhibition at 48 hours vs 2% DMSO control, read-out: Concentration at 90% Inhibition St): > 50 µg/mL
IC90 ([11]; Septoria tritici, growth inhibition vs 2% DMSO control at 48 hours, read-out: Concentration at 90% Inhibition St): > 50 µg/mL

SMILES: COc1ccccc1[C@H](Cn1c(=O)n(C(C)(C)C(=O)N2CC(O)C2)c(=O)c2c(C)c(-n3nccn3)sc21)OC1CCOCC1 [Compound I-19, (R)-3-(1-(3-hydroxyazetidin-1-yl)-2-methyl-1-oxopropan-2-yl)-1-(2-(2-methoxyphenyl)-2-((tetrahydro-2H-pyran-4-yl)oxy)ethyl)-5-methyl-6-(2H-1,2,3-triazol-2-yl)thieno[2,3-d]pyrimidine-2,4(1H,3H)-dione]
IC50 ([1]; Table 2a): 10 to 40 nM
IC50 ([1]; Table 2b, additional results): 10 to 40 nM
MIC ([2]; read-out: MIC, C. albicans ATCC 90028, Table 3a, 3 replicates, MIC recorded at 48 h): 2.1 to 4 µg/mL (≈ 3.36 to 6.4 µM)
MIC ([2]; read-out: MIC, C. albicans ATCC 90028, Table 3b (additional results), 3 replicates, MIC recorded at 48 h): 1.01 to 2 µg/mL (≈ 1.62 to 3.2 µM)
MIC ([3]; read-out: MIC, C. krusei ATCC 6258, Table 3a, 3 replicates, MIC recorded at 48 h): 2.1 to 4 µg/mL (≈ 3.36 to 6.4 µM)
MIC ([3]; read-out: MIC, C. krusei ATCC 6258, Table 3b (additional results), 3 replicates, MIC recorded at 48 h): 2.01 to 4 µg/mL (≈ 3.22 to 6.4 µM)
MIC ([4]; read-out: MIC, C. parapsilosis ATCC 22019, Table 3a, 3 replicates, MIC recorded at 48 h): 2.1 to 4 µg/mL (≈ 3.36 to 6.4 µM)
MIC ([4]; read-out: MIC, C. parapsilosis ATCC 22019, Table 3b (additional results), 3 replicates, MIC recorded at 48 h): 1.01 to 2 µg/mL (≈ 1.62 to 3.2 µM)
IC90 ([5]; read-out: Concentration at 90% Inhibition Cg, Collectotrichum graminicola, growth inhibition at 48 hours vs 2% DMSO control): > 50 µg/mL
IC90 ([5]; read-out: Concentration at 90% Inhibition Cg, Collectotrichum graminicola, growth inhibition vs 2% DMSO control at 48 hours): > 50 µg/mL
IC90 ([6]; read-out: Concentration at 90% Inhibition Dm, Diplodia maydis, growth inhibition at 48 hours vs 2% DMSO control): > 50 µg/mL
IC90 ([6]; read-out: Concentration at 90% Inhibition Dm, Diplodia maydis, growth inhibition vs 2% DMSO control at 48 hours): > 50 µg/mL
Concentration at 90% Inhibition Fm [7, 12]: B (compound concentration of 2.0 ppm at 90% inhibition of fungal pathogens)
IC90 [7]: 2 µg/mL (≈ 3.2 µM)
IC90 ([8]; read-out: Concentration at 90% Inhibition Fv, Fusarium virguliforme, growth inhibition at 48 hours vs 2% DMSO control): 10 µg/mL (≈ 16 µM)
IC90 ([8]; read-out: Concentration at 90% Inhibition Fv, Fusarium virguliforme, growth inhibition vs 2% DMSO control at 48 hours): > 50 µg/mL
IC90 ([9]; read-out: Concentration at 90% Inhibition Pc, Phytophthora capsici, growth inhibition at 48 hours vs 2% DMSO control): > 50 µg/mL
IC90 ([9]; read-out: Concentration at 90% Inhibition Pc, Phytophthora capsici, growth inhibition vs 2% DMSO control at 48 hours): > 50 µg/mL
IC90 ([10]; read-out: Concentration at 90% Inhibition Rs, Rhizoctonia solani, mycelial plugs, growth inhibition at 48 hours vs 2% DMSO control): 10 µg/mL (≈ 16 µM)
IC90 ([10]; read-out: Concentration at 90% Inhibition Rs, Rhizoctonia solani, mycelial plugs, growth inhibition vs 2% DMSO control at 48 hours): > 50 µg/mL
IC90 ([11]; read-out: Concentration at 90% Inhibition St, Septoria tritici, growth inhibition at 48 hours vs 2% DMSO control): > 50 µg/mL
IC90 ([11]; read-out: Concentration at 90% Inhibition St, Septoria tritici, growth inhibition vs 2% DMSO control at 48 hours): > 50 µg/mL
